Reference: patent publication US20230025807A1 (priority 2019, published 2023)

target: T1, Human CD38 (Homo sapiens, UniProt P28907); experiment: biochemical; conditions: not given
T1 construct: purchased BPS Bioscience 79287
T1 sequence (P28907 1-300): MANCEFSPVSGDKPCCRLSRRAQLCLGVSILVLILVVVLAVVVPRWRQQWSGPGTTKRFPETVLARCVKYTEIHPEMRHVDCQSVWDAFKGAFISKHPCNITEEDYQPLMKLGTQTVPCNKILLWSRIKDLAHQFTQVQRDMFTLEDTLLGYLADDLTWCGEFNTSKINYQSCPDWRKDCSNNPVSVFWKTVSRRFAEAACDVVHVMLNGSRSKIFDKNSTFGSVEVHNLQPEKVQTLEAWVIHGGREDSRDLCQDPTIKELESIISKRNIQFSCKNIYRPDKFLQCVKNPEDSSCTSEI
Experimental: CD38 hydrolase buffer (4×) was thawed on ice and 1×CD38 hydrolase buffer was prepared by diluting 4×CD38 hydrolase buffer with water. CD38 hydrolase enzyme was diluted to […] with 1×CD38 hydrolase buffer (10 ng/well). Master mix was prepared by mixing equal volumes of water and CD38 hydrolase buffer (4×) and 10 μl of the mix was added to all the wells. Following master mix addition, 10 μl of the inhibitors and 20 μl of CD38 hydrolase enzyme were added to the wells. For wells designated blank, 10 μl and 20 μl of 1×CD38 hydrolase buffer was added respectively in place of CD38 enzyme and inhibitors. The plate was covered and incubated 30 min at room temperature with slow shaking at 400 rpm. After 30 min incubation, the plate was removed and 10 μl of diluted ε-NAD substrate was added to all the wells. The plate is incubated for 10 min, spun at 1200 rpm for 30 secs to remove bubbles and read in Tecan Spark using a fluorometer setting of excitation 300 nm and emission 410 nm. The reading for the blank was subtracted from all the values. IC50 for the test compounds were determined by using Graphpad prism software v7.0.

Row | Structure (SMILES) | IC50 [nM]
1 | COCCO[C@H]1CC[C@H](NC(=O)c2cc(-c3ncc[nH]3)cc3cc[nH]c23)CC1 [Example 6, 5-(1H-imidazol-2-yl)-N-((1r,4r)-4-(2-methoxyethoxy)cyclohexyl)-1H-indole-7-carboxamide] | > 100000
2 | COCCO[C@H]1CC[C@H](NC(=O)c2nc(-n3ccnc3)cc3cc[nH]c23)CC1 [Example 59, 5-(1H-imidazol-1-yl)-N-((1r,4r)-4-(2-methoxyethoxy)cyclohexyl)-1H-pyrrolo[2,3-c]pyridine-7-carboxamide] | 6
3 | C[C@H]1CCCC[C@H]1NC(=O)c1cc(-c2cncs2)cc2[nH]ccc12 [Example 40, N-((1R,2S)-2-methylcyclohexyl)-6-(thiazol-5-yl)-1H-indole-4-carboxamide] | 78
4 | CS(=O)(=O)CCNC(=O)c1cc(-c2cncs2)cc2[nH]ccc12 [Example 26, N-(2-(methylsulfonyl)ethyl)-6-(thiazol-5-yl)-1H-indole-4-carboxamide] | 1000
5 | CC(C)(O)[C@H]1CC[C@H](NC(=O)c2cc(-c3cncs3)cc3[nH]ccc23)CC1 [Example 29, N-((1r,4r)-4-(2-hydroxypropan-2-yl)cyclohexyl)-6-(thiazol-5-yl)-1H-indole-4-carboxamide] | 123
6 | COCCO[C@H]1CC[C@H](NC(=O)c2cc(-n3ccnc3)cc3ccn(C)c23)CC1 [Example 54, 5-(1H-imidazol-1-yl)-N-((1r,4r)-4-(2-methoxyethoxy)cyclohexyl)-1-methyl-1H-indole-7-carboxamide] | 375
7 | CC1(O)CC(NC(=O)c2cc(-c3cncs3)cc3[nH]ccc23)C1 (stereo not drawn) [Example 36, N-(3-hydroxy-3-methylcyclobutyl)-6-(thiazol-5-yl)-1H-indole-4-carboxamide] | 1500
8 | O=C(NCc1ccc(N2CCOCC2)cc1)c1cc(-c2cncs2)cc2[nH]ccc12 [Example 33, N-(4-morpholinobenzyl)-6-(thiazol-5-yl)-1H-indole-4-carboxamide] | > 10000
9 | O=C(NC12CC3CC(CC(C3)C1)C2)c1cc(-c2cncs2)cc2[nH]ccc12 [Example 44, N-(adamantan-1-yl)-6-(thiazol-5-yl)-1H-indole-4-carboxamide] | 393
10 | COCCO[C@H]1CC[C@H](NC(=O)c2cc(-c3cncs3)cc3c2ccn3C(C)C)CC1 [Example 52, 1-isopropyl-N-((1r,4r)-4-(2-methoxyethoxy)cyclohexyl)-6-(thiazol-5-yl)-1H-indole-4-carboxamide] | 1400
11 | COCCO[C@H]1CC[C@H](NC(=O)c2cc(-n3ccnc3)cc3c(C(=O)O)c[nH]c23)CC1 [Example 11, 5-(1H-imidazol-1-yl)-7-(((1r,4r)-4-(2-methoxyethoxy)cyclohexyl)carbamoyl)-1H-indole-3-carboxylic acid] | 580
12 | O=C(NC1CCOCC1)c1cc(-c2cncs2)cc2[nH]ccc12 [Example 45, N-(tetrahydro-2H-pyran-4-yl)-6-(thiazol-5-yl)-1H-indole-4-carboxamide] | 664
13 | O=C(N[C@@H]1CC[C@@H](O)C1)c1cc(-c2cncs2)cc2[nH]ccc12 [Example 31, N-((1R,3R)-3-hydroxycyclopentyl)-6-(thiazol-5-yl)-1H-indole-4-carboxamide] | 392
14 | COCCO[C@H]1CC[C@H](NC(=O)c2cc(-n3ccnc3)cc3c(C=O)c[nH]c23)CC1 [Example 15, 3-formyl-5-(1H-imidazol-1-yl)-N-((1r,4r)-4-(2-methoxyethoxy)cyclohexyl)-1H-indole-7-carboxamide] | 18000
15 | COCCO[C@H]1CC[C@H](NC(=O)c2cc(-c3cncs3)cc3c2ccn3CC2COC2)CC1 [Example 50, N-((1r,4r)-4-(2-methoxyethoxy)cyclohexyl)-1-(oxetan-3-ylmethyl)-6-(thiazol-5-yl)-1H-indole-4-carboxamide] | 503
16 | O=C(N[C@H]1C[C@H](O)C1)c1cc(-c2cncs2)cc2[nH]ccc12 [Example 46, N-((1r,3r)-3-hydroxycyclobutyl)-6-(thiazol-5-yl)-1H-indole-4-carboxamide] | 678
17 | COCCO[C@H]1CC[C@H](NC(=O)c2cc(-n3ccnc3)cc3c(I)c[nH]c23)CC1 [Example 22, 5-(1H-imidazol-1-yl)-3-iodo-N-((1r,4r)-4-(2-methoxyethoxy)cyclohexyl)-1H-indole-7-carboxamide] | 169
18 | COCC(C)(C)NC(=O)c1cc(-c2cncs2)cc2[nH]ccc12 [Example 42, N-(1-methoxy-2-methylpropan-2-yl)-6-(thiazol-5-yl)-1H-indole-4-carboxamide] | 3600
19 | O=C(NC12CC3CC(CC(O)(C3)C1)C2)c1cc(-c2cncs2)cc2[nH]ccc12 [Example 28, N-((1r,3s,5R,7S)-3-hydroxyadamantan-1-yl)-6-(thiazol-5-yl)-1H-indole-4-carboxamide] | 523

same assay, conditions: 30 min pre-incubation at room temperature, ε-NAD substrate 10 min, excitation 300 nm / emission 410 nm; read-out: hCD38 IC50

Row | Structure (SMILES) | IC50 [nM]
20 | O=C(N[C@H]1CC[C@H](O)CC1)c1cc(-c2cncs2)cc2[nH]ccc12 [Example 41, N-((1r,4r)-4-hydroxycyclohexyl)-6-(thiazol-5-yl)-1H-indole-4-carboxamide] | 37
21 | COCCCO[C@H]1CC[C@H](NC(=O)c2cc(-c3cncs3)cc3[nH]ccc23)CC1 [Example 37, N-((1r,4r)-4-(3-methoxypropoxy)cyclohexyl)-6-(thiazol-5-yl)-1H-indole-4-carboxamide] | 63
